# Test results taken from US6706663B2, “Herbicidal 3-heterocyclic substituted benzisothiazole and benzisoxazole compounds” (Wyeth, priority 2000, dated 2004).
# Experiments:
# [1] = system: MOOVA (Monochoria vaginalis); assay: Flooded paddy, preemergence weed control; format: in vivo, Presl.; details: rated 3-4 weeks after treatment, 0-9 rating scale
# How it was run: (§1)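 Greenhouse paddy test, preemergence. Seeds planted in the top 0.5 cm of silt loam soil, which remained flooded at 1.5–3 cm depth. Scored 0-9 by visual comparison with control.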
# GALAP (Galium aparine) = assay: Preemergence herbicidal evaluation; format: in vivo; details: rated 4-5 weeks after treatment
# How it was run: (§2)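 Test compound is applied in aqueous acetone to cups just after seeding. Cups are watered and maintained on greenhouse benches. Each cup is scored 0–9 by eye relative to a control after four to five weeks.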
# [2] = system: ECHORC (Echinochloa oryzoides); assay: Flooded paddy, preemergence weed control; format: in vivo, Echinochloa oryzoides (Ard.) Fritsch.; details: rated 3-4 weeks after treatment, 0-9 rating scale
# How it was run: as §1
# [3] = system: ECHCG (Echinochloa crus-galli); assay: Postemergence herbicidal evaluation; format: in vivo, (L.) Beau; details: for ECHCG herbicidal rating: postemergence
# How it was run: (§3)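 Seedlings grown for about two weeks were sprayed postemergence and then kept under standard greenhouse care. Injury was rated visually 4–5 weeks after treatment on a 0–9 scale against untreated controls, and ratings from repeat tests were averaged.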
# SETVI (Setaria viridis) [4] = assay: Postemergence herbicidal evaluation; format: in vivo, (L.) Beau; details: for SETVI herbicidal rating: postemergence
# How it was run: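 Seedlings grown about two weeks were sprayed with compound in 50/50 acetone/water containing 0.5% TWEEN 20, at about 0.0040 to 1.000 kg/ha via nozzle at 40 psi. Plants were kept under greenhouse conditions and visually rated on a 0-9 scale versus control four to five weeks after treatment; replicate tests averaged.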
# [5] = system: ABUTH (Abutilon theophrasti); assay: Preemergence herbicidal evaluation; format: in vivo, Medic.; details: rated 4-5 weeks after treatment
# [6] = system: TRZAWR (Wheat, Winter, cv Riband); assay: Postemergence herbicidal evaluation; format: in vivo, Triticum aestivum; details: for TRZAWR herbicidal rating: postemergence
# How it was run: as §3
# ORYSAT (Rice, Tebonnet) [7] = assay: Preemergence herbicidal evaluation; format: in vivo, Oryza sativa, (L.) Tebonnet; details: rated 4-5 weeks after treatment
# [8] = system: GLXMAW (Soybean, Williams); assay: Postemergence herbicidal evaluation; format: in vivo, Glycine max, (L.) Merr. cv Williams; details: for GLXMAW herbicidal rating: postemergence
# How it was run: as §3
# ZEAMX (Corn, Field) = assay: Postemergence herbicidal evaluation; format: in vivo, Zea mays, L.; details: for ZEAMX herbicidal rating: postemergence
# How it was run: as §3
# [9] = system: TRZAWR (Wheat, Winter, cv Riband); assay: Preemergence herbicidal evaluation; format: in vivo, Triticum aestivum; details: rated 4-5 weeks after treatment
# How it was run: as §2
# [10] = system: ECHCG (Echinochloa crus-galli); assay: Preemergence herbicidal evaluation; format: in vivo, (L.) Beau; details: rated 4-5 weeks after treatment
# How it was run: as §2
# SETVI (Setaria viridis) [11] = assay: Preemergence herbicidal evaluation; format: in vivo, (L.) Beau; details: rated 4-5 weeks after treatment
# How it was run: as §2
# ORYSAT (Rice, Tebonnet) [12] = assay: Postemergence herbicidal evaluation; format: in vivo, Oryza sativa, (L.) Tebonnet; details: for ORYSAT herbicidal rating: postemergence
# How it was run: as §3
# [13] = system: IPOHE (Ipomoea hederacea); assay: Postemergence herbicidal evaluation; format: in vivo, (L.) Jacq.; details: for IPOHE herbicidal rating: postemergence
# How it was run: as §3
# [14] = system: AMBEL (Ambrosia artemisifolia); assay: Preemergence herbicidal evaluation; format: in vivo, L.; details: rated 4-5 weeks after treatment
# How it was run: as §2
# [15] = system: CHEAL (Chenopodium album); assay: Preemergence herbicidal evaluation; format: in vivo, L.; details: rated 4-5 weeks after treatment
# How it was run: as §2
# [16] = system: CASOB (Cassia obtusifolia); assay: Preemergence herbicidal evaluation; format: in vivo, L.; details: rated 4-5 weeks after treatment
# How it was run: as §2
compound,measurement,setting,value
"Cn1c(C(F)(F)F)cc(=O)n(-c2ccc3snc(-c4ccccn4)c3c2)c1=O [Compound 9, 1-methyl-3-[3-(2-pyridyl)-1,2-benzisothiazol-5-yl]-6-(trifluoromethyl)uracil]","herbicidal rating, MOOVA",[1]; rate 0.0080 kg/ha,8.0
same,"herbicidal rating, MOOVA",[1]; rate 0.0320 kg/ha,9.0
same,"herbicidal rating, MOOVA",[1]; rate 0.1250 kg/ha,9.0
same,GALAP preemergence herbicidal rating,GALAP (Galium aparine); Rate 0.0620 kg/ha,1.5
same,GALAP preemergence herbicidal rating,GALAP (Galium aparine); Rate 0.1250 kg/ha,3.0
same,GALAP preemergence herbicidal rating,GALAP (Galium aparine); Rate 0.2500 kg/ha,7.0
same,"herbicidal rating, ECHORC",[2]; rate 0.0080 kg/ha,4.0
same,"herbicidal rating, ECHORC",[2]; rate 0.0320 kg/ha,7.0
same,"herbicidal rating, ECHORC",[2]; rate 0.1250 kg/ha,9.0
same,"Postemergence herbicidal rating, ECHCG",[3]; rate 0.0320 kg/ha,1.0
same,"Postemergence herbicidal rating, ECHCG",[3]; rate 0.0620 kg/ha,2.0
same,"Postemergence herbicidal rating, ECHCG",[3]; rate 0.1250 kg/ha,8.0
same,"Postemergence herbicidal rating, SETVI",SETVI (Setaria viridis) [4]; rate 0.0320 kg/ha,8.0
same,"Postemergence herbicidal rating, SETVI",SETVI (Setaria viridis) [4]; rate 0.0620 kg/ha,9.0
same,"Postemergence herbicidal rating, SETVI",SETVI (Setaria viridis) [4]; rate 0.1250 kg/ha,9.0
same,ABUTH preemergence herbicidal rating,[5]; Rate 0.0620 kg/ha,9.0
same,ABUTH preemergence herbicidal rating,[5]; Rate 0.1250 kg/ha,9.0
same,ABUTH preemergence herbicidal rating,[5]; Rate 0.2500 kg/ha,9.0
same,"Postemergence herbicidal rating, TRZAWR",[6]; rate 0.0320 kg/ha,4.0
same,"Postemergence herbicidal rating, TRZAWR",[6]; rate 0.0620 kg/ha,4.5
same,"Postemergence herbicidal rating, TRZAWR",[6]; rate 0.1250 kg/ha,6.0
same,ORYSAT preemergence herbicidal rating,"ORYSAT (Rice, Tebonnet) [7]; Rate 0.0620 kg/ha",4.3
same,ORYSAT preemergence herbicidal rating,"ORYSAT (Rice, Tebonnet) [7]; Rate 0.1250 kg/ha",6.7
same,ORYSAT preemergence herbicidal rating,"ORYSAT (Rice, Tebonnet) [7]; Rate 0.2500 kg/ha",8.0
same,"Postemergence herbicidal rating, GLXMAW",[8]; rate 0.0320 kg/ha,8.3
same,"Postemergence herbicidal rating, GLXMAW",[8]; rate 0.0620 kg/ha,8.3
same,"Postemergence herbicidal rating, GLXMAW",[8]; rate 0.1250 kg/ha,9.0
same,"Postemergence herbicidal rating, ZEAMX","ZEAMX (Corn, Field); rate 0.0320 kg/ha",5.3
same,"Postemergence herbicidal rating, ZEAMX","ZEAMX (Corn, Field); rate 0.0620 kg/ha",5.8
same,"Postemergence herbicidal rating, ZEAMX","ZEAMX (Corn, Field); rate 0.1250 kg/ha",5.5
same,TRZAWR preemergence herbicidal rating,[9]; Rate 0.0620 kg/ha,5.5
same,TRZAWR preemergence herbicidal rating,[9]; Rate 0.1250 kg/ha,7.5
same,TRZAWR preemergence herbicidal rating,[9]; Rate 0.2500 kg/ha,8.5
same,ECHCG preemergence herbicidal rating,[10]; Rate 0.0620 kg/ha,8.3
same,ECHCG preemergence herbicidal rating,[10]; Rate 0.1250 kg/ha,9.0
same,ECHCG preemergence herbicidal rating,[10]; Rate 0.2500 kg/ha,9.0
same,SETVI preemergence herbicidal rating,SETVI (Setaria viridis) [11]; Rate 0.0620 kg/ha,9.0
same,SETVI preemergence herbicidal rating,SETVI (Setaria viridis) [11]; Rate 0.1250 kg/ha,9.0
same,SETVI preemergence herbicidal rating,SETVI (Setaria viridis) [11]; Rate 0.2500 kg/ha,9.0
same,"Postemergence herbicidal rating, ORYSAT","ORYSAT (Rice, Tebonnet) [12]; rate 0.0320 kg/ha",3.8
same,"Postemergence herbicidal rating, ORYSAT","ORYSAT (Rice, Tebonnet) [12]; rate 0.0620 kg/ha",4.3
same,"Postemergence herbicidal rating, ORYSAT","ORYSAT (Rice, Tebonnet) [12]; rate 0.1250 kg/ha",3.0
same,"Postemergence herbicidal rating, IPOHE",[13]; rate 0.0320 kg/ha,9.0
same,"Postemergence herbicidal rating, IPOHE",[13]; rate 0.0620 kg/ha,9.0
same,"Postemergence herbicidal rating, IPOHE",[13]; rate 0.1250 kg/ha,9.0
same,AMBEL preemergence herbicidal rating,[14]; Rate 0.0620 kg/ha,6.3
same,AMBEL preemergence herbicidal rating,[14]; Rate 0.1250 kg/ha,9.0
same,AMBEL preemergence herbicidal rating,[14]; Rate 0.2500 kg/ha,9.0
same,CHEAL preemergence herbicidal rating,[15]; Rate 0.0620 kg/ha,9.0
same,CHEAL preemergence herbicidal rating,[15]; Rate 0.1250 kg/ha,9.0
same,CHEAL preemergence herbicidal rating,[15]; Rate 0.2500 kg/ha,9.0
same,CASOB preemergence herbicidal rating,[16]; Rate 0.0620 kg/ha,1.0
same,CASOB preemergence herbicidal rating,[16]; Rate 0.1250 kg/ha,2.7
same,CASOB preemergence herbicidal rating,[16]; Rate 0.2500 kg/ha,6.3
"C=C1COC(c2nsc3ccc(-n4c(=O)cc(C(F)(F)F)n(C)c4=O)cc23)OC1 [Compound 58, 2,4(1H,3H)-pyrimidinedione, 1-methyl-3-[3-(5-methylene-m-dioxan-2-yl)-1,2-benzisothiazol-5-yl]-6-(trifluoromethyl)-]","herbicidal rating, MOOVA",[1]; rate 0.0320 kg/ha,9.0
same,"herbicidal rating, MOOVA",[1]; rate 0.1250 kg/ha,9.0
same,Preemergence herbicidal rating GALAP,GALAP (Galium aparine); Rate 0.0620 kg/ha,9.0
same,Preemergence herbicidal rating GALAP,GALAP (Galium aparine); Rate 0.1250 kg/ha,9.0
same,Preemergence herbicidal rating GALAP,GALAP (Galium aparine); Rate 0.2500 kg/ha,9.0
same,"herbicidal rating, ECHORC",[2]; rate 0.0320 kg/ha,6.0
same,"herbicidal rating, ECHORC",[2]; rate 0.1250 kg/ha,9.0
same,ECHCG herbicidal rating,[3]; rate 0.0320 kg/ha,1.0
same,ECHCG herbicidal rating,[3]; rate 0.0620 kg/ha,3.0
same,SETVI herbicidal rating,SETVI (Setaria viridis) [4]; rate 0.0320 kg/ha,1.0
same,SETVI herbicidal rating,SETVI (Setaria viridis) [4]; rate 0.0620 kg/ha,6.0
same,Preemergence herbicidal rating ABUTH,[5]; Rate 0.0620 kg/ha,9.0
same,Preemergence herbicidal rating ABUTH,[5]; Rate 0.1250 kg/ha,9.0
same,Preemergence herbicidal rating ABUTH,[5]; Rate 0.2500 kg/ha,9.0
same,TRZAWR herbicidal rating,[6]; rate 0.0320 kg/ha,4.0
same,TRZAWR herbicidal rating,[6]; rate 0.0620 kg/ha,4.5
same,Preemergence herbicidal rating ORYSAT,"ORYSAT (Rice, Tebonnet) [7]; Rate 0.0620 kg/ha",8.5
same,Preemergence herbicidal rating ORYSAT,"ORYSAT (Rice, Tebonnet) [7]; Rate 0.1250 kg/ha",9.0
same,Preemergence herbicidal rating ORYSAT,"ORYSAT (Rice, Tebonnet) [7]; Rate 0.2500 kg/ha",9.0
same,GLXMAW herbicidal rating,[8]; rate 0.0320 kg/ha,7.0
same,GLXMAW herbicidal rating,[8]; rate 0.0620 kg/ha,7.5
same,ZEAMX herbicidal rating,"ZEAMX (Corn, Field); rate 0.0320 kg/ha",5.5
same,ZEAMX herbicidal rating,"ZEAMX (Corn, Field); rate 0.0620 kg/ha",5.5
same,Preemergence herbicidal rating TRZAWR,[9]; Rate 0.0620 kg/ha,7.0
same,Preemergence herbicidal rating TRZAWR,[9]; Rate 0.1250 kg/ha,8.0
same,Preemergence herbicidal rating TRZAWR,[9]; Rate 0.2500 kg/ha,8.0
same,Preemergence herbicidal rating ECHCG,[10]; Rate 0.0620 kg/ha,9.0
same,Preemergence herbicidal rating ECHCG,[10]; Rate 0.1250 kg/ha,9.0
same,Preemergence herbicidal rating ECHCG,[10]; Rate 0.2500 kg/ha,9.0
same,Preemergence herbicidal rating SETVI,SETVI (Setaria viridis) [11]; Rate 0.0620 kg/ha,8.0
same,Preemergence herbicidal rating SETVI,SETVI (Setaria viridis) [11]; Rate 0.1250 kg/ha,9.0
same,Preemergence herbicidal rating SETVI,SETVI (Setaria viridis) [11]; Rate 0.2500 kg/ha,9.0
same,ORYSAT herbicidal rating,"ORYSAT (Rice, Tebonnet) [12]; rate 0.0320 kg/ha",3.5
same,ORYSAT herbicidal rating,"ORYSAT (Rice, Tebonnet) [12]; rate 0.0620 kg/ha",5.0
same,IPOHE herbicidal rating,[13]; rate 0.0320 kg/ha,9.0
same,IPOHE herbicidal rating,[13]; rate 0.0620 kg/ha,9.0
same,Preemergence herbicidal rating AMBEL,[14]; Rate 0.0620 kg/ha,9.0
same,Preemergence herbicidal rating AMBEL,[14]; Rate 0.1250 kg/ha,9.0
same,Preemergence herbicidal rating AMBEL,[14]; Rate 0.2500 kg/ha,9.0
same,Preemergence herbicidal rating CHEAL,[15]; Rate 0.0620 kg/ha,9.0
same,Preemergence herbicidal rating CHEAL,[15]; Rate 0.1250 kg/ha,9.0
same,Preemergence herbicidal rating CHEAL,[15]; Rate 0.2500 kg/ha,9.0
same,Preemergence herbicidal rating CASOB,[16]; Rate 0.0620 kg/ha,5.5
same,Preemergence herbicidal rating CASOB,[16]; Rate 0.1250 kg/ha,6.5
same,Preemergence herbicidal rating CASOB,[16]; Rate 0.2500 kg/ha,9.0
